According to publication PMC11217349, “Development of Nurr1 agonists from amodiaquine by scaffold hopping and fragment growing” (Communications Chemistry, 2024):
Where “and” joins values, the source holds several entries; their conditions need not be identical. Equal entries are not always repeated.

Assays:
[1] = Parallel artificial membrane permeability assay (PAMPA); assay type: in vitro ADME; conditions: 500 µM donor, pH 7.4, 18 h
Method: Passive lipid membrane diffusion of test compounds was determined using Merck Millipore MultiScreen Filter Plates (0.45 μm pore diameter, hydrophobic PVDF). The filter inserts were coated with 1% L-α-phosphatidylcholine (Fluka Analytical) in n-dodecan. The test compounds were then added to the donor compartment at a final concentration of 500 µM in a phosphate buffer pH 7.4 containing 5% DMSO with a total volume of 150 µL. The acceptor compartment was filled with 300 µL PBS containing 5% DMSO. Additionally, three equilibrium samples were prepared by directly adding the donor solution to the acceptor compartment for the calculation of log Pe values. The filter plates were incubated for 18 h before the test compound concentrations in the acceptor compartments and in the equilibrium, samples were determined by UV absorbance at 320 nm (34), 360 nm (36), 310 nm (41), or 315 nm (42) with external calibration in a 96 well quartz plate on a SpectraMax M2e microplate reader (Molecular Devices). logPe values were calculated according to the formula published by Sugano and colleagues.

[2] = biological target: T1, human Nurr1 (hinge region and ligand binding domain) (Homo sapiens, UniProt P43354); test: Gal4-Nurr1 hybrid reporter gene assay; assay type: cell-based; conditions: mean ± SD, n ≥ 3; for EC50: Gal4-Nurr1 hybrid reporter, HEK293T, read-out: EC50(Nurr1); for max. activation: maximum effect vs. 0.1% DMSO control
T1 construct: expressed in transfected cells; host or cells: HEK293T
T1 sequence (P43354 360-595 limits assumed): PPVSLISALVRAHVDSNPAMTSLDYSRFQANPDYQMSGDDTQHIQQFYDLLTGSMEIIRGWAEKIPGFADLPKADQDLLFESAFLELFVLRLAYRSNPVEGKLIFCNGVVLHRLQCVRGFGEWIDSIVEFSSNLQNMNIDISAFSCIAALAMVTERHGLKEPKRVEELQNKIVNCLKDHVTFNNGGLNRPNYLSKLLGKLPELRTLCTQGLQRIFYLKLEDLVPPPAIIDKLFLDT
Method: Nurr1 modulation was determined in a Gal4 hybrid reporter gene assay in HEK293T cells (German Collection of Microorganisms and Cell Culture GmbH, DSMZ) using pFR-Luc (Stratagene, La Jolla, CA, USA; reporter), pRL-SV40 (Promega, Madison, WI, USA; internal control) and pFA-CMV-hNurr1-LBD[14], coding for the hinge region and ligand binding domain of the canonical isoform of human Nurr1. […] After 24 h, the medium was changed to Opti-MEM without supplements, and cells were transiently transfected using Lipofectamine LTX reagent (Invitrogen, Carlsbad, CA, USA) according to the manufacturer’s protocol. Five hours after transfection, cells were incubated with the test compounds in Opti-MEM supplemented with penicillin (100 U/mL), streptomycin (100 μg/mL), and 0.1% DMSO for 16 h before luciferase activity was measured using the Dual-Glo Luciferase Assay System (Promega) according to the manufacturer’s protocol on a Tecan Spark luminometer (Tecan Deutschland GmbH, Crailsheim, Germany). Firefly luminescence was divided by Renilla luminescence and multiplied by 1000 resulting in relative light units (RLU) to normalize for transfection efficiency and cell growth. Fold activation was obtained by dividing the mean RLU of the test compound by the mean RLU of the untreated control. All samples were tested in at least three biologically independent experiments in duplicates. For dose-response curve fitting and calculation of EC50 values, the equation “[Agonist] vs. response -- Variable slope (four parameters)” was used in GraphPad Prism (version 7.00, GraphPad Software, La Jolla, CA, USA). Selectivity profiling was performed with identical procedures using pFA-CMV-Nur77-LBD[14], pFA-CMV-NOR-1-LBD[14], pFA-CMV-THRα-LBD[51], pFA-CMV-RARα-LBD[52], pFA-CMV-PPARα-LBD[53], pFA-CMV-PPARγ-LBD[53], pFA-CMV-PPARδ-LBD[53], pFA-CMV-LXRα-LBD[54], pFA-CMV-FXR-LBD[55] and pFA-CMV-hRXRα-LBD[56].

[3] = Microsomal stability; assay type: in vitro ADME, rat; conditions: male, Sprague-Dawley, pH 7.4; rat liver microsomes, 10 µM, LCMS
Method: To determine microsomal stability, test compounds (10 μM) were incubated in 100 mM potassium phosphate buffer at pH 7.4 (total volume of 100 µL) containing 0.5 mg/mL male rat liver microsomes (Sprague-Dawley, no. M9066, Merck KGaA, Darmstadt) and 1 mM NADPH for 0, 15, 30, or 60 min. At the end of the incubation time, microsomal activity was terminated by the addition of 500 µL MeCN and subsequent centrifugation at 1700 g for 5 min. A reaction mixture containing heat-inactivated microsomes (95 °C, 10 min) was prepared as a control for each compound. 5 µL supernatant of each sample was analyzed and the remaining concentrations of the respective test compounds at each time point were determined by LC-MS/MS on an API-3200-QTrap (Sciex) with an Agilent Technologies 1100 series setup including a binary pump (G1311A), a degasser (G1322A), and a Shimadzu SIL 20 A HT autosampler under the control of Analyst 1.6 (Sciex). A XBridge BEH C18 (3.5 µm, 150 mm×3 mm, Waters, protected with a 0.5 µm frit) stationary phase was used in combination with a gradient method starting with 0.1% formic acid in water (A) and MeCN (B) as mobile phase (A:B = 80:20) for 6 min going to A: B = 50:50 after 8 min. 5 µL of supernatant diluted in mobile phase starting conditions was loaded onto the column, separated at a flow rate of 400 µL/min, and detected and quantified per Area of MRM (multiple reaction monitoring) with the following transitions: m/z 381.797/145.000 (34); m/z 395.125/158.200 (36); m/z 409.822/131.000 (41); m/z 407.838/171.100 (42).

[4] = system: HBEC-5i human brain endothelial cells; test: In vitro blood-brain-barrier model; assay type: in vitro ADME; conditions: HBEC-5i trans-well, 10 µM, 60 min
Method: Permeation of test compounds through a human brain endothelial cell barrier was evaluated using the Corning Costar 3470 Transwell Plate system (0.4 μm pore diameter with 6.5 mm inserts) and HBEC-5i cells (ATCC, CRL-3245). Filter inserts were coated one day before seeding with 50 μL 0.01% rat-tail collagen type I ([…], Sigma-Aldrich) in PBS. 60,000 HBEC-5i cells in 100 μL HBEC-5i-Medium (DMEM/F12 with 10% FCS and 40 μg/mL ECGS) were seeded after aspiration of the coating-supernatant in each insert with 600 μL HBEC-5i-Medium in each receiver well. After 24 h incubation at 37 °C with 5% CO2, the medium was exchanged to 600 μL T98G cell supernatant in receiver wells and 100 μL fresh HBEC-5i-Medium in inserts. The medium exchange was repeated every second day. On day 7 after seeding, the medium in the receiver wells was replaced by 600 μL Hank's balanced salt solution (HBSS) containing 10 mM HEPES and 0.1% DMSO and 100 μL test compound mixtures (antipyrine and test compound; each at 10 μM) in HBSS containing 10 mM HEPES and 0.1% DMSO were added to inserts. After 60 min incubation, 100 μL samples were taken from the receiver wells and diluted in 400 μL (75%/25% A/B; A=Formic acid 0.1% in water; B = Acetonitrile). Test compound concentrations in the samples were determined by LC-MS/MS on an API-3200-QTrap (Sciex) equipped with an Agilent Technologies 1100 series setup including a binary pump […]), and a Shimadzu […] autosampler under the control of Analyst 1.6 (Sciex). […] B) for 6 min going to (50%:50%) after 8 min. 5 μL of aspirated supernatant diluted in mobile phase starting conditions was loaded onto the column, separated at a flow rate of 400 μL/min, and quantified per Area of MRM (multiple reaction monitoring).

[5] = system: Nurr1; design: method as in PMID 33289551; conditions: independent evaluation; cited from earlier work

| Structure (SMILES) | logPe (PAMPA) [1] | EC50 [2] [nM] | max. activation [2] [fold] | half-life at 10 µM [3] [min] | logPe (BBB) [4] | binding to Nurr1 [5] |
| --- | --- | --- | --- | --- | --- | --- |
| COc1ccc(-c2ccc(C(=O)Nc3c(C)nc4c(Cl)cccn34)o2)cc1 [Compound 34] | -5.478 and -5.491 and -5.489 and -5.4212 and -5.4577 | 160 ± 60 | 1.7 ± 0.1 | 18 ± 2 |  |  |
| Cc1nc2c(Cl)cccn2c1NC(=O)c1ccc(-c2ccc(OC(C)C)cc2)o1 [Compound 41] | -5.684 and -5.708 and -5.674 and -5.7032 and -5.723 and -5.7183 | 120 ± 30 | 2.1 ± 0.2 | 42 ± 5 |  |  |
| Cc1nc2c(Cl)cccn2c1NC(=O)c1ccc(-c2ccc(OC3CC3)cc2)o1 [Compound 42, N-(8-Chloro-2-methylimidazo[1,2-a]pyridin-3-yl)-5-(4-cyclopropoxyphenyl)furan-2-carboxamide] | -5.857 and -5.822 and -5.789 and -5.846 and -5.806 | 120 ± 60 | 1.5 ± 0.2 | 78 ± 7 | -5.049 and -5.059 and -4.946 and -5.046 and -4.96 and -4.965 |  |
| O=C(Nc1ccccc1)c1cn2cc(-c3ccccn3)ccc2n1 [SR24237] |  |  |  |  |  | no evidence for binding |
| Cc1cc(=O)n(-c2ccccc2)n1C [antipyrine, reference compound] |  |  |  |  | -4.6402 and -4.7739 and -4.62 and -4.578 and -4.647 |  |
